Assay results: patent US9446051B2, “Neuroprotection and myelin repair using nestorone®” (The Population Council, Inc., priority 2009, dated 2016)

Experiments:
[1] = test system: neural progenitor cell (NPC); assay: Neural progenitor cell proliferation, BrdU chemiluminescence ELISA; type: cell-based, rat; details: for proliferation of progenitor cells compared with progesterone: FIG. 3 and FIG. 4; for NPC proliferation (BrdU incorporation) compared with progesterone: at 24 hours, FIGS. 6A-D
Method: In vitro studies were carried out to determine neural progenitor cell (NPC) regeneration in rats. Cell proliferation was determined by S phase incorporation of BrdU. After 4 to 6 hours starvation (medium without supplements), rNPCs were loaded with 10 μM BrdU in the presence or absence of bFGF and varying concentrations of P4 or test progestins in unsupplemented maintenance medium for 1d. The rNPCs were then processed as described previously (1, 14). After subtracting the value of the blank (without BrdU loading), data were analyzed using a one-way ANOVA, followed by a Neuman-Keuls post hoc test.

[2] = test system: primary hippocampal neurons; assay: Neuroprotection of primary hippocampal neurons against glutamate, LDH release; type: cell-based; details: for neuroprotective efficacy against 200 μM glutamate (LDH release) compared with progesterone: dose-response, FIGS. 7A-F
Method: The effect of NES and other progestins on CNS plasticity and the neuroprotective efficacy against glutamate toxicity has also been evaluated. LDH was measured, as a well-accepted assay, to determine such effect after exposure of the cells to glutamate, and the neuronal viability was assessed under the action of various progestins.
Comparisons of neuroprotection against neurodegenerative insults were carried out. Efficacy was determined in connection with the protection of primary hippocampal neurons against degeneration induced by excitoxic glutamate. Hippocampal neuronal cultures grown on […] culture plates for 7d in vitro were pretreated with vehicle alone or test compounds, followed by exposure to 200 μM glutamate as previously described (13). After glutamate exposure, cultures were washed with HEPES-buffered saline solution and replaced with fresh NBM containing the test compounds or combinations. Cultures were returned to the incubator and incubated for 24 hours prior to analysis of neuronal viability using colorimetric LDH release in the media. Dose-response analysis was conducted for each of the progestins tested, and the results are shown in FIGS. 7A-F. Neuroprotective efficiency was calculated as follows: NE=(Vsample−Vglutamate)/(Vsubcontrol−Vglutamate).

[3] = test system: primary hippocampal neuron cultures; details: cited from earlier work; for protection against glutamate toxicity: alone or in combination, 48 hours before glutamate insult
[4] = test system: hippocampus of Sprague-Dawley ovariectomized female rats; assay: In vivo NPC proliferation and cell viability in ovariectomized rats (Western blot, FACS of BrdU+ cells); design: species or system rat; details: for PCNA expression at the protein level: FIG. 8A
Method: The generalized ability of the above in vitro findings to the in vivo condition were investigated. Analyses of NPC proliferation in rats and cell viability were conducted in three-month-old Sprague-Dawley ovariectomized female rats with various of the progestins. […] In order to assess the total number of BrdU+ cells, the contralateral hippocampal hemisphere used for protein analysis was fixed and processed by FACS analysis. The total number of BrdU+ cells per each hippocampus was determined and normalized to that of vehicle control. […] In order to measure cell viability in terms of promotion of mitochondrial function and reduction in oxidative damage expression of the alpha subunit of ATP synthase-Complex V (CVα) of the mitochondrial oxidative phosphorylation pathway was assessed by Western blot analysis.

Bax/Bcl-2 = assay: In vivo apoptotic activity, Bax/Bcl-2 ratio by Western blot
From the text: The effects of various progestins on apoptosis was studied using Western blot analysis to determine the expression level of Bax, an apoptosis mediator by […] to the mitochondria to release apoptotic factors such as cytochrome c and Bcl-2. The ratio of Bax to Bcl-2 was used as an indicator of in vivo apoptotic activity.

[5] = test system: hippocampi of ovariectomized female Sprague Dawley rats; type: in vivo; details: stated 'as noted above'
Method: The impact of the combination of 17β-estradiol (E2) and various progestins on neurogenesis and cell viability […] was also carried out. Young adult ovariectomized female Sprague Dawley rates were thus divided into six groups and received injection of either E2 alone or E2 combined with one of the progestins. Hippocampi were isolated 24 hours later for Western blot analysis and flow cytometry to determine the impact of treatment on cell viability and neurogenesis respectively. The expression level of PCNA was assessed to determine the impact of the treatment compounds on entry into the cell cycle required for neurogenesis.

[6] = test system: androgenic, estrogenic and glucocorticoid responses; details: cited from earlier work
[7] = test system: organotypic neonatal rat or mouse cerebellar slice culture; assay: Myelination in organotypic cerebellar slice culture, measured by myelin basic protein (MBP) immunoreactivity; type: cell-based
From the text: In experiments conducted in organotypic neonatal rat or mouse cerebellar slice culture, progesterone accelerated axon myelination (13,14).

PR^lacz mice with MCAO = assay: Transient middle cerebral artery occlusion (MCAO), steroid treatment after reperfusion; type: in vivo, mouse
Method: In experiments conducted using progesterone receptor (PR) deficient mice (PR^−/−) compared with PR^+/− and PR^+/+ mice and both progesterone and Nestorone® were administered after ischemia and reperfusion.
In order to test the effect of steroid treatments after reperfusion, adult male PR^lacz mice were anesthetized and the middle cerebral artery (MCA) was occluded for one hour with an intraluminal filament. After ligature of the left common carotid artery, a nylon monofilament coated with thermo-melting glue was introduced through an arteriotomy performed on the external carotid artery and advanced into the internal carotid artery. Occlusion of the MCA was controlled by monitoring the cerebral blood flow within the MCA territory by laser Doppler flowmetry. The filament was withdrawn one hour after occlusion to allow reperfusion, and the common carotid artery ligature was also removed. The mice were randomly and blindly assigned to either progesterone, allopregnanolone or Nestorone®, or vehicle-treated (sesame oil; sigma). All of the steroids were initially dissolved in a small volume of ethanol and further diluted in sesame oil to obtain the desired final steroid concentrations. Injections were given interperitoneally (IP) at 1, 6, and 24 hours after MCA occlusion (MCAO) according to established neuroprotective protocols. Treated mice were killed at 48 hours after MCAO.
Cerebral infarct volumes and areas were determined after triphenyltetrazolium chloride (TTC) staining of brain sections. The details of this procedure are set forth in “Progesterone Receptors: A Key For Neuroprotection In Experimental Stroke,” Endocrinology, August 2012, 153(8), pp. 1-11, which is incorporated herein by reference thereto in its entirety. […] In FIGS. 11, 12 and 13, after the administration of progesterone and Nestorone®, in neuronal density the infarct (FIG. 11) and the penumbra (FIG. 12) can clearly be shown. In FIG. 13 the decrease in […] in the penumbra after administration of progesterone and Nestorone® is also clearly shown.

[8] = indicator of in vivo apoptotic activity

## C#C[C@]1(OC(C)=O)CC[C@H]2[C@@H]3CCC4=CC(=NO)CC[C@@H]4[C@H]3CC[C@@]21CC (mixture of isomers) [norgestimate]
[1]
  proliferation of progenitor cells compared with progesterone: more proliferative than progesterone
  NPC proliferation (BrdU incorporation) compared with progesterone: more potent in cell proliferation than progesterone at all concentrations
[2]
  neuroprotective efficacy against 200 μM glutamate (LDH release) compared with progesterone: less potent than progesterone

## CC(=O)[C@H]1CC[C@H]2[C@@H]3CCC4=CC(=O)CC[C@@H]4[C@H]3CC[C@]12C [19-norprogesterone]
[3]
  protection against glutamate toxicity: protected against glutamate toxicity

## CC(=O)O[C@]1(C(C)=O)CC[C@H]2[C@@H]3C[C@H](C)C4=CC(=O)CC[C@]4(C)[C@H]3CC[C@@]21C [MPA, medroxyprogesterone acetate]
[1]
  proliferation of progenitor cells compared with progesterone: antagonistic
  NPC proliferation (BrdU incorporation) compared with progesterone: significantly inhibited proliferation at multiple concentrations
[2]
  neuroprotective efficacy against 200 μM glutamate (LDH release) compared with progesterone: less potent than progesterone
[4]; FACS, normalized to vehicle control, FIG. 8B
  total number of BrdU+ cells per hippocampus: no significant effect on cell proliferation
[4]; Western blot
  PCNA expression at the protein level: no significant effect
[4]; Western blot, FIG. 8C
  expression of alpha subunit of ATP synthase-Complex V (CVα): no significant effect
Bax/Bcl-2; in vivo
  ratio of Bax/Bcl-2 expression: significantly increased
[5]
  cell proliferation: increased cell proliferation
[6]
  androgenic response: induce androgenic responses
  glucocorticoid response: induces both androgenic and glucocorticoid responses
[3]
  protection against glutamate toxicity: failed to protect against glutamate toxicity
[3]; coadministered with 17β-E2
  effect on estrogen-induced neuroprotection when coadministered: attenuated the estrogen-induced neuroprotection

## C[C@]12CC[C@@H]3c4ccc(O)cc4CC[C@H]3[C@@H]1CC[C@@H]2O [estradiol, 17β-estradiol]
[3]
  protection against glutamate toxicity: protected against glutamate toxicity

## C#C[C@]1(O)CC[C@H]2[C@@H]3CCC4=CC(=O)CC[C@@H]4[C@H]3CC[C@@]21CC [levonorgestrel]
[4]; Western blot
  PCNA expression at the protein level: no significant effect
Bax/Bcl-2; [8]
  ratio of Bax/Bcl-2 expression: significantly increased

## C#C[C@]1(OC(C)=O)CC[C@H]2[C@@H]3CCC4=CC(=O)CC[C@@H]4[C@H]3CC[C@@]21C [norethindrone acetate]
[1]
  proliferation of progenitor cells compared with progesterone: antagonistic
  NPC proliferation (BrdU incorporation) compared with progesterone: minimal or no effect on proliferation

## C#C[C@]1(O)CC[C@H]2[C@@H]3CCC4=CC(=O)CC[C@@H]4[C@H]3CC[C@@]21C [norethindrone]
[2]
  neuroprotective efficacy against 200 μM glutamate (LDH release) compared with progesterone: less potent than progesterone
[6]
  androgenic response: exert androgenic and estrogenic responses
  estrogenic response: exert androgenic and estrogenic responses

## C#C[C@]1(O)CC[C@H]2[C@@H]3CCC4=C(CCC(=O)C4)[C@H]3CC[C@@]21C [norethynodrel]
[1]
  proliferation of progenitor cells compared with progesterone: more proliferative than progesterone
[1]; high nanomolar ranges
  NPC proliferation (BrdU incorporation) compared with progesterone, high nanomolar ranges: significantly more efficacious than progesterone
[1]; low nanomolar range
  NPC proliferation (BrdU incorporation) compared with progesterone, low nanomolar range: comparable effects to progesterone
[2]
  neuroprotective efficacy against 200 μM glutamate (LDH release) compared with progesterone: more potent than progesterone at minimal effective concentrations
[6]
  androgenic response: exert androgenic and estrogenic responses
  estrogenic response: exert androgenic and estrogenic responses

## CC(=O)[C@H]1CC[C@H]2[C@@H]3CCC4=CC(=O)CC[C@]4(C)[C@H]3CC[C@]12C [progesterone]
[7]; NES at 20 μm as active as PROG at 50 μm (FIG. 1)
  concentration of equal promyelinating activity: 50 μm
[7]; PR knockout mice
  myelination in cerebellar slices from PR knockout mice: did not increase myelination
[7]; cerebellar slice culture
  myelination measured by myelin basic protein (MBP) immunoreactivity: promote dose-dependent myelination
[1]
  proliferation of progenitor cells compared with progesterone: increases the proliferation
  NPC proliferation (BrdU incorporation) compared with progesterone: comparably efficacious at their EC100 concentrations
[2]; FIG. 5, NES and PROG at 10−7M
  neuroprotective efficacy against glutamate toxicity (LDH): exerted the higher efficacy
[4]; Western blot
  CDC2 protein expression: significantly increased
Bax/Bcl-2; [8]
  ratio of Bax/Bcl-2 expression: no effect
PR^lacz mice with MCAO; after stroke
  efficient neuroprotective dose: 8 mg/kg
PR^lacz mice with MCAO; treatment after stroke
  microglial density in the penumbra (neuroinflammatory responses): reduced microglial density
  neuronal density in the infarct and in the penumbra: significantly increases the neuronal density
[3]
  protection against glutamate toxicity: protected against glutamate toxicity
